Reference: patent publication US20030144360A1, “Composition and method for modulating BAR/FXR receptor activity” (Allergan Sales, Inc., priority 2001, published 2003)

Columns and labels:
Caco-2 cells = experiment: Northern blot analysis of BAR/FXR target genes in differentiated Caco-2 cells; assay type: cell-based, human; conditions: for IBABP expression / SHP expression: 10 μM, 24 hours
Protocol: Caco-2 cells were maintained for 20 days post-confluence to allow differentiation. They were fed twice a week with their regular media during this period.
One day prior to treatment, confluent HepG2 and differentiated Caco-2 cells were switched to phenol red-free media containing resin-charcoal stripped FBS and then treated for and additional 24 hours with the indicated compounds. Total RNA was isolated using the Trizol reagent. Northern blots were prepared from polyA^+ RNA using the Oligotex method (Qiagen) and analyzed with the following probes: human CYP7A (accession #M93133) nucleotides 1617-2576 (Karam and Chiang, 185 Biochem. Biophys. Res. Commun. 588 (1992)), human SHP (accession #L76571) nucleotides 888-1355, human IBABP (accession # A1311734), an EST containing the entire coding sequence of IBABP.
We next tested the ability of AGN 29 and AGN 31 to regulate BAR/FXR target genes. We used the hepatoma cell line HepG2 as a hepatocyte model as this cell line has been used extensively to study cholesterol metabolism and bile acid-mediated gene regulation. We monitored the expression of two well known BAR/FXR target genes: CYP7A, the rate-limiting enzyme for bile acid synthesis, is down regulated by bile acids in HepG2 cells.

BAR-RXRm heterodimers = target: T1, BAR-RXRm heterodimers (Rattus norvegicus, UniProt Q62735); experiment: Co-activator (GRIP1) recruitment gel shift assay, BAR-RXRm heterodimer; assay type: binding; conditions: for recruitment of co-activator GRIP1 (gel shift): 32P-labeled IBABP IR1 response element, range of doses
T1 construct: nucleic acid regions encoding the following full-length proteins were cloned into a CMV expression vector; made in house; host or cells: receptors: in vitro translation; GST-GRIP1: E. coli
T1 sequence (Q62735 1-469): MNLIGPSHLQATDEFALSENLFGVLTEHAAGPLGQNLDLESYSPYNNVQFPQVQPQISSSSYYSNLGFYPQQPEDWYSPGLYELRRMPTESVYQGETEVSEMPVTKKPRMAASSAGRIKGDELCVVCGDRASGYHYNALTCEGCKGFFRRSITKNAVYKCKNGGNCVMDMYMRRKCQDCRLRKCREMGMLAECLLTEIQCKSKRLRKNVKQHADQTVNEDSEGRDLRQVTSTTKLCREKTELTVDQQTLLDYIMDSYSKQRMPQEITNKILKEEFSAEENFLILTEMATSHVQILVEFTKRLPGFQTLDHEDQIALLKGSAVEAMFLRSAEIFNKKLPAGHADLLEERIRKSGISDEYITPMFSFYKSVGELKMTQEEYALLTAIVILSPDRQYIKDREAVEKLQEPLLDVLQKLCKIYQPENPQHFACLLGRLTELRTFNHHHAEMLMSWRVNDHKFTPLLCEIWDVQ
T1 sequence (P19793 1-462 D322P partner): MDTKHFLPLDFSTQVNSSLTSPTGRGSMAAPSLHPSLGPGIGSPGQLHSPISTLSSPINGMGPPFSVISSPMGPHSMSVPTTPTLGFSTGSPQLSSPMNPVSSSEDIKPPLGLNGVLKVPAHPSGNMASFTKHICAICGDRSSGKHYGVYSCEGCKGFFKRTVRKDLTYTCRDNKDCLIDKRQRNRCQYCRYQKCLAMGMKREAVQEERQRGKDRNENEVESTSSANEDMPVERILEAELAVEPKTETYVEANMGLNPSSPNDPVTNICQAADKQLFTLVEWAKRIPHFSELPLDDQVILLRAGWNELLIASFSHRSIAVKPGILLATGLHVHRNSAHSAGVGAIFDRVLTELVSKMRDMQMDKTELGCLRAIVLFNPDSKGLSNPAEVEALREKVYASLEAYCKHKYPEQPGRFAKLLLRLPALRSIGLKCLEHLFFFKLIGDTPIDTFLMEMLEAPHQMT
From the text: Coactivators, which bind agonist-activated nuclear receptors including, without limitation, RAR and RXR, function to assist the activated nuclear receptor exert its activity as a transcription factor. Characterized co-activators include CBP, p300, RIP140, SRC-1, ACTR, TIF2 (also called GRIP 1) and TIFI. In most cases coactivator will not bind the receptor in the absence of an agonist, moreover, receptor antagonists will often block coactivator binding, either directly or through the recruitment of a corepressor. Coactivator recruitment assays are therefore a valuable method for directly visualizing associative changes to a receptor caused by the addition of a prospective ligand.
GRIP 1 was expressed as a fusion protein with glutathione-S-transferase, an enzyme which selectively binds glutathione and can thus be used as an affinity reagent. See e.g., U.S. Pat. No. 5,654,176. The GST-GRIP1 fusion protein was expressed in E. coli and purified on glutathione-Sepharose columns. In vitro translated BAR/FXR\RXR (0.6-1.2 μl each) and GST-GRIP 1 (5 μg) were incubated for 30 min at room temperature with 100,000 cpm of the E. coli DNA polymerase Klenow fragment-labeled probes in 10 mM Tris (pH 8.0), 50 mM KCl, 6% glycerol, 0.05% NP-40, 1 mM DTT, 12.5 ng/μl poly dI-dC, and the indicated ligands. Complexes were electrophoresed through 5% polyacrylamide gel in […] (45 mM Tris-base, 45 mM boric acid, 1 mM EDTA) at room temperature. […]
To address the question of whether the two identified compounds are ligands for BAR, we used an in vitro co-activator recruitment assay. […] Because the association between co-activator and receptor results in the formation of a new higher molecular weight species, the ligand-dependent recruitment of co-activator can be detected in gel shift assays and is commonly used as an indicator for ligand binding. […]

SMILES	basal SHP levels (Caco-2 cells; 1 μM AGN 34, 24 hours)	CDCA-induced IBABP levels (Caco-2 cells; 100 μM CDCA + 1 μM AGN34, 24 hours)	competition (GRIP1 displacement) with BAR/RXRm heterodimer (BAR-RXRm heterodimers; AGN 29 as agonist, increasing AGN 34)	IBABP expression (Caco-2 cells)	SHP expression (Caco-2 cells)	recruitment of co-activator GRIP1 (gel shift) (BAR-RXRm heterodimers)
CCCCCCOc1c(\C(C)=C/C=C/C(C)=C/C(=O)O)cc(C(C)C)cc1C(C)C [AGN 34, (2E, 4E, 6Z)-7-(2-Hexyloxy-3,5-diisopropylphenyl)-3-methylocta-2,4,6-trienoic Acid]	did not affect	reduced the induced IBABP levels close to basal levels	same results			
CCCC/C(=C\c1ccc(C(=O)O)cc1)c1ccc2c(c1)C(C)(C)CCC2(C)C [AGN 31, 4-[2-(5,5,8,8-Tetramethyl-5,6,7,8-tetrahydronaphthalen-2-yl)hex-1-enyl]benzoic Acid]				strongly induced	strongly induced	shifted the majority of the complexes
Cc1cc2c(cc1/C(=C/c1ccc(C(=O)O)cc1)[Si](C)(C)C)C(C)(C)CCC2(C)C [AGN 29, (Z)-4-[2-(3,5,5,8,8-Pentamethy1-5,6,7,8-tetrahydronaphthalen-2-yl)-2-(trimethylsilyl)vinyl]benzoic Acid]				strongly induced	strongly induced	shifted the majority of the complexes
